Species: Rattus norvegicus
Assay: DrugMatrix - Regimen: Daily Repeat
Type: toxicity, organism-based, Sprague-Dawley
Parameters: regimen Daily Repeat, gender Male, age 6-8 weeks
Conditions: in vivo, po, route oral GAVAGE, vehicle .5 % CMC; for ABSOLUTE BASOPHIL / ABSOLUTE EOSINOPHIL / ABSOLUTE LYMPHOCYTE / ABSOLUTE MONOCYTE / ABSOLUTE SEGMENTED NEUTROPHIL / BASOPHIL / EOSINOPHIL / ERYTHROCYTE COUNT / HEMATOCRIT / HEMOGLOBIN / LEUKOCYTE COUNT / LYMPHOCYTE / MEAN CORPUSCULAR HEMOGLOBIN / MEAN CORPUSCULAR HEMOGLOBIN CONCENTRATION / MEAN CORPUSCULAR VOLUME / MONOCYTE / NEUTROPHIL / NUCLEATED RED BLOOD CELLS / PLATELET COUNT: tissue Blood; for ALANINE AMINOTRANSFERASE / ALBUMIN / ALKALINE PHOSPHATASE / ASPARTATE AMINOTRANSFERASE / BLOOD UREA NITROGEN / CARBON DIOXIDE / CHLORIDE / CHOLESTEROL / CREATINE PHOSPHOKINASE / CREATININE / GLUCOSE / LACTATE DEHYDROGENASE / LIPASE / PHOSPHORUS / POTASSIUM / SODIUM / TOTAL BILIRUBIN / TOTAL PROTEIN / URIC ACID: tissue Plasma
[1] = 200 mg/kg, 120 h, dose level Low, time 5 day
[2] = 2500 mg/kg, 72 h, dose level High, time 3 day
[3] = 2500 mg/kg, 120 h, dose level High, time 5 day

Cc1cnc(C(=O)NCCc2ccc(S(=O)(=O)NC(=O)NC3CCCCC3)cc2)cn1 [GLIPIZIDE]
ABSOLUTE BASOPHIL [1]: 0 CELLS/uL
ABSOLUTE EOSINOPHIL [1]: 50.67 CELLS/uL
ABSOLUTE LYMPHOCYTE [1]: 13488 CELLS/uL
ABSOLUTE MONOCYTE [1]: 195 CELLS/uL
ABSOLUTE SEGMENTED NEUTROPHIL [1]: 633 CELLS/uL
BASOPHIL [1]: 0%
EOSINOPHIL [1]: 0.33%
ERYTHROCYTE COUNT [1]: 5.57 x10E6/uL
HEMATOCRIT [1]: 34.23%
HEMOGLOBIN [1]: 13.7 G/DL
LEUKOCYTE COUNT [1]: 14.37 x10E3/uL
LYMPHOCYTE [1]: 94%
MEAN CORPUSCULAR HEMOGLOBIN [1]: 24.63 pg
MEAN CORPUSCULAR HEMOGLOBIN CONCENTRATION [1]: 40 G/DL
MEAN CORPUSCULAR VOLUME [1]: 61.53 fL
MONOCYTE [1]: 1.33%
NEUTROPHIL [1]: 4.33%
NUCLEATED RED BLOOD CELLS [1]: 0 /100WBC
PLATELET COUNT [1]: 1282.33 x10E3/uL
ALANINE AMINOTRANSFERASE [1]: 62.33 u/L
ALBUMIN [1]: 4.3 G/DL
ALKALINE PHOSPHATASE [1]: 343.67 u/L
ASPARTATE AMINOTRANSFERASE [1]: 82.67 u/L
BLOOD UREA NITROGEN [1]: 14 mg/dL
CARBON DIOXIDE [1]: 32.33 mmol/L
CHLORIDE [1]: 103 MEQ/L
CHOLESTEROL [1]: 74.67 mg/dL
CREATINE PHOSPHOKINASE [1]: 208.33 u/L
CREATININE [1]: 0.13 mg/dL
GLUCOSE [1]: 118.67 mg/dL
LACTATE DEHYDROGENASE [1]: 116.33 u/L
LIPASE [1]: 10.67 u/L
PHOSPHORUS [1]: 10.77 mg/dL
POTASSIUM [1]: 6.11 MEQ/L
SODIUM [1]: 144.93 MEQ/L
TOTAL BILIRUBIN [1]: 0.2 mg/dL
TOTAL PROTEIN [1]: 6.03 G/DL
URIC ACID [1]: 0.9 mg/dL
ABSOLUTE BASOPHIL [2]: 0 CELLS/uL
ABSOLUTE EOSINOPHIL [2]: 83.33 CELLS/uL
ABSOLUTE LYMPHOCYTE [2]: 11306.67 CELLS/uL
ABSOLUTE MONOCYTE [2]: 81.67 CELLS/uL
ABSOLUTE SEGMENTED NEUTROPHIL [2]: 861.67 CELLS/uL
BASOPHIL [2]: 0%
EOSINOPHIL [2]: 0.67%
ERYTHROCYTE COUNT [2]: 5.69 x10E6/uL
HEMATOCRIT [2]: 36.9%
HEMOGLOBIN [2]: 14.23 G/DL
LEUKOCYTE COUNT [2]: 12.33 x10E3/uL
LYMPHOCYTE [2]: 91.67%
MEAN CORPUSCULAR HEMOGLOBIN [2]: 25.07 pg
MEAN CORPUSCULAR HEMOGLOBIN CONCENTRATION [2]: 38.57 G/DL
MEAN CORPUSCULAR VOLUME [2]: 64.9 fL
MONOCYTE [2]: 0.67%
NEUTROPHIL [2]: 7%
NUCLEATED RED BLOOD CELLS [2]: 0 /100WBC
PLATELET COUNT [2]: 1346.67 x10E3/uL
ALANINE AMINOTRANSFERASE [2]: 54 u/L
ALBUMIN [2]: 4.17 G/DL
ALKALINE PHOSPHATASE [2]: 318.33 u/L
ASPARTATE AMINOTRANSFERASE [2]: 75.33 u/L
BLOOD UREA NITROGEN [2]: 16 mg/dL
CARBON DIOXIDE [2]: 31 mmol/L
CHLORIDE [2]: 102.33 MEQ/L
CHOLESTEROL [2]: 72.33 mg/dL
CREATINE PHOSPHOKINASE [2]: 179.33 u/L
CREATININE [2]: 0.15 mg/dL
GLUCOSE [2]: 148.67 mg/dL
LACTATE DEHYDROGENASE [2]: 104.33 u/L
LIPASE [2]: 10 u/L
PHOSPHORUS [2]: 11.9 mg/dL
POTASSIUM [2]: 6.37 MEQ/L
SODIUM [2]: 143.83 MEQ/L
TOTAL BILIRUBIN [2]: 0.17 mg/dL
TOTAL PROTEIN [2]: 5.63 G/DL
URIC ACID [2]: 1.7 mg/dL
ABSOLUTE BASOPHIL [3]: 0 CELLS/uL
ABSOLUTE EOSINOPHIL [3]: 102.33 CELLS/uL
ABSOLUTE LYMPHOCYTE [3]: 11867.33 CELLS/uL
ABSOLUTE MONOCYTE [3]: 0 CELLS/uL
ABSOLUTE SEGMENTED NEUTROPHIL [3]: 1397 CELLS/uL
BASOPHIL [3]: 0%
EOSINOPHIL [3]: 0.67%
ERYTHROCYTE COUNT [3]: 5.55 x10E6/uL
HEMATOCRIT [3]: 34.63%
HEMOGLOBIN [3]: 14.1 G/DL
LEUKOCYTE COUNT [3]: 13.37 x10E3/uL
LYMPHOCYTE [3]: 88%
MEAN CORPUSCULAR HEMOGLOBIN [3]: 25.4 pg
MEAN CORPUSCULAR HEMOGLOBIN CONCENTRATION [3]: 40.73 G/DL
MEAN CORPUSCULAR VOLUME [3]: 62.37 fL
MONOCYTE [3]: 0%
NEUTROPHIL [3]: 11.33%
NUCLEATED RED BLOOD CELLS [3]: 0 /100WBC
PLATELET COUNT [3]: 1273.67 x10E3/uL
ALANINE AMINOTRANSFERASE [3]: 58 u/L
ALBUMIN [3]: 4.37 G/DL
ALKALINE PHOSPHATASE [3]: 329 u/L
ASPARTATE AMINOTRANSFERASE [3]: 83.33 u/L
BLOOD UREA NITROGEN [3]: 15 mg/dL
CARBON DIOXIDE [3]: 30.67 mmol/L
CHLORIDE [3]: 100.67 MEQ/L
CHOLESTEROL [3]: 71 mg/dL
CREATINE PHOSPHOKINASE [3]: 224.33 u/L
CREATININE [3]: 0.19 mg/dL
GLUCOSE [3]: 140.33 mg/dL
LACTATE DEHYDROGENASE [3]: 117 u/L
LIPASE [3]: 7.67 u/L
PHOSPHORUS [3]: 11.13 mg/dL
POTASSIUM [3]: 5.21 MEQ/L
SODIUM [3]: 146.2 MEQ/L
TOTAL BILIRUBIN [3]: 0.2 mg/dL
TOTAL PROTEIN [3]: 6.17 G/DL
URIC ACID [3]: 0.8 mg/dL
